We go through eight compounds from PMC5590679 (Journal of medicinal chemistry, 2017).

The subject of test [1] is Mtb H37Rv. The experiment in a line: microbe, parasite or virus in culture. Format: cell-based, Mycobacterium tuberculosis. The settings on record: for MIC50 WT+biotin: Mtb H37Rv with 1 μM supplemental biotin; for MIC: Mycobacterium tuberculosis, H37RV.
Test [2] deals with Mtb H37Rv. The settings on record: cited from earlier work.
Test [3] relates to Mtb BioA underexpression strain (BioA-UE). As to the kind of experiment: microbe, parasite or virus in culture. Format: cell-based, Mycobacterium tuberculosis.
Where [4] appears, read: MIC that results in 50% inhibition.

In brackets after ≈: the same amount, converted by molar mass. Where two headings read alike, the source gives them in different places.

In the case of `CC(=O)c1ccc(N2CCN(C(=O)c3ccc4c(c3)OCO4)CC2)cc1` [Compound 6, 1-(4-(4-(Benzo[d][1,3]dioxole-5-carbonyl)piperazin-1-yl)phenyl)-ethanone], the “MIC50 WT+biotin” value against Mtb H37Rv [1] (setting [4]) was over 50 µM. In addition, the MIC with Mtb H37Rv [1] (read-out: MIC that results in 90% inhibition, WT+biotin) was over 50 µM; in the test with Mtb H37Rv [1] (read-out: MIC that results in 90% inhibition, WT-biotin) it was 23.4 µM (≈ 8.25 µg/mL); in test [3] (Mycobacterium tuberculosis, read-out: MIC that results in 90% inhibition, BioA-UE), 1.7 µM (≈ 0.599 µg/mL). For the same compound, the “activity against whole-cell Mtb in biotin-supplemented medium” value with Mtb H37Rv [2] is on record as “no observed activity”.

For `CC(=O)c1ccc(N2CCN(C(=O)c3ccc(Cl)c(Cl)c3)CC2)cc1` [Compound 9, 1-(4-(4-(3,4-Dichlorobenzoyl)piperazin-1-yl)phenyl)ethanone], in the test on Mtb H37Rv [1] (biotin-free medium, relative to 6), the “fold loss in potency against WT Mtb” value stood at 2 fold.

Regarding `CC(=O)c1cccc(N2CCN(C(=O)c3cccc(Cl)c3)CC2)c1` [Compound 30, 1-(3-(4-(3-Chlorobenzoyl)piperazin-1-yl)phenyl)ethanone], in the test on Mtb H37Rv [1], the “fold loss in activity compared to para-acetyl 12” value is recorded as 10–50 fold.

Consider `O=C1CCc2cc(N3CCN(C(=O)c4ccc5c(c4)OCO5)CC3)ccc21` [Compound 36, 5-(4-(Benzo[d][1,3]dioxole-5-carbonyl)piperazin-1-yl)-2,3-dihydro-1H-inden-1-one], for which, in the test with Mtb H37Rv [1] (read-out: minimum inhibitory concentration (MIC) against WT Mtb), the MIC stood at 1.7 µM (≈ 0.619 µg/mL).

Consider `CC(=O)c1ccc(-c2cn(Cc3cccc(Cl)c3)nn2)cc1` [Compound 37, 1-(4-(1-(3-Chlorobenzyl)-1H-1,2,3-triazol-4-yl)phenyl)ethanone], for which the “antitubercular activity (in words)” value with Mtb H37Rv [1] was “inactive”.

On to `CC(=O)c1ccc(-c2cn(Cc3cccc(Cl)c3)nn2)s1` [Compound 38, 1-(5-(1-(3-Chlorobenzyl)-1H-1,2,3-triazol-4-yl)thiophen-2-yl)-ethanone], for which the “antitubercular activity (in words)” value with Mtb H37Rv [1] was “inactive”.

For `CC(=O)c1ccc(N2CCC(C(=O)c3ccc4c(c3)OCO4)CC2)cc1` [Compound 40, 1-(4-(4-(Benzo[d][1,3]dioxole-5-carbonyl)piperidin-1-yl)phenyl)-ethanone], the “antitubercular activity (in words)” value in the test with Mtb H37Rv [1] is “completely inactive”.

For the compound “(3-Chlorophenyl)(4-(5-methoxypyridin-2-yl)piperazin-1-yl)-methanone [Compound 22]”, in the test on Mtb H37Rv [1] (setting [4]), the “MIC50 WT+biotin” value is over 50 µM. For the same compound, the “MIC50 WT-biotin” value against Mtb H37Rv [1] (MIC that results in 50% inhibition, Mtb H37Rv without supplemental biotin) came out at 22.0 µM. For the same compound, the “MIC50 BioA-UE” value in test [3] (MIC that results in 50% inhibition, […]) stood at 24.4 µM.
